The values below come from patent US8293895B2, “Carbapenem derivatives” (KBP Biosciences Co., Ltd., priority 2007, dated 2012).

The subject of one data set is klebsiella pneumonia. In words: In vitro antimicrobial activity, agar dilution method. Format: cell-based. The note with it: Klebsiella pneumoniae, klebsiella pneumonia clinical isolates. The source says:
(§1) Bacterial strains for test: All the bacterial strains are obtained from clinic/hospital and purchased from public organizations. (1) Gram-positive bacteria: methicillin-sensitive Staphylococcus aureus (MSSA), methicillin-resistant Staphylococcus aureus (MRSA), methicillin-resistant Staphylococcus epidermidis (MRSE), methicillin-sensitive Staphylococcus epidermidis (MSSE), penicillin-sensitive Streptococcus pneumoniae (PSSP), penicillin-resistant Streptococcus pneumoniae (PRSP); (2) Gram-negative bacteria: Escherichia coli (products from ESBLs), Klebsiella pneumonia, Pseudomonas aeruginosa. Drugs to be tested: Compound A-E, self-made as described above; Control drugs: Meropenem (Meropenem for injection), Ertapenem (Ertapenem for injection), commercially available. Experimental Method: the agar dilution method, by reference to Methodology of Pharmacological Experiment (XU Shuyun et al, published by the Peoples Medical Publishing House, 1st Edition, August, 1982; 3rd Edition, 5th printing, January 2002, p 1659-1660).
A general note: In agar dilution, organisms are placed on agar that contains the substance at set levels.

Data set [1] deals with methicillin-resistant Staphylococcus aureus (MRSA). The description is as above. The class given is cell-based. The note with it: MRSA clinical isolates.
From the text: as §1

The subject of data set [2] is methicillin-resistant Staphylococcus epidermidis (MRSE). The data set is described as above. The class given is cell-based. The conditions noted are these: MRSE clinical isolates.
From the text: as §1

The subject of data set [3] is methicillin-sensitive Staphylococcus aureus (MSSA). The data set is described as above. The conditions noted are these: MSSA clinical isolates. The class given is cell-based.
From the text: as §1

In data set [4] the test system is methicillin-sensitive Staphylococcus epidermidis (MSSE). The description is as above. The class given is cell-based. The conditions noted are these: MSSE clinical isolates.
From the text: as §1

Data set [5] concerns penicillin-resistant Streptococcus pneumoniae (PRSP). Described as above. The conditions noted are these: PRSP clinical isolates. Format: cell-based.
From the text: as §1

Data set [6] deals with penicillin-sensitive Streptococcus pneumoniae (PSSP). The data set is described as above. The class given is cell-based. The note with it: PSSP clinical isolates.
From the text: as §1

The next data set has as its system pseudomonas aeruginosa. The data set is described as above. Format: cell-based. The note with it: pseudomonas aeruginosa clinical isolates.
From the text: as §1

Another data set deals with proteus mirabilis. Described as above. The class given is cell-based. The conditions noted are these: proteus mirabilis clinical isolates.
In the next data set the test system is serratia marcescens. The data set is described as above. The class given is cell-based. The conditions noted are these: serratia marcescens clinical isolates.
Data set [7] is described as follows: In vivo pharmacokinetics of SD rat. How it is done:
Drugs to be Tested and Preparation Thereof
Drugs to be tested: partial compounds of the present invention, self-synthesized as described above.
Control drugs: Ertapenem (Ertapenem for Injection), commercially available.
Internal standard substance: Warfarin, white powder, purity: 99%, batchnumber: 0072-8501, provided by Shanghai Institute for Drug Control.
Drug formulation: being dissolved in physiological saline to make the final concentration to be 5 mg/mL for intravenous injection and formulated before administration.
Test animal: SD male rats, weight: 200˜250 g, purchased from SHANGHAI SLAC LABORATORY ANIMAL CO. LTD.
Administration of the drugs to be tested: The SD male rats were randomly divided into five groups, 3 in each group, administrated by intravenous injection in an amount of 10 mg/kg; and weighted before administration.
Collection of Samples: Zero time was marked before administration; 0.5 mL of blood was respectively sampled from orbit venous plexus at 5 min, 15 min, 30 min, 45 min, 1 h, 2 h, 4 h, 6 h, 8 h, 24 h after administration into heparinized centrifuge tubes. The samples were centrifuged for 6 minutes at 8000 rpm and the supernatant plasma was separated. The plasma was freezed at −20° C. for LC-MS/MS analysis. Establishing liquid chromatography-mass spectrometry (LC-MS) methodology: Chromatographic conditions: chromatographic column. Gemini C6-Phenyl (50 mm×4.6 mm, 5 μm), mobile phase: 0.1% of formic acid-water-acetonitrile (5:35:60, v/v/v); flow rate: 1 mL/min; column temperature: 35-40° C., injection volume: 5 μL; split ratio: 1/5. Mass spectrometer conditions: scanning pattern: cation multiple reactions monitoring (MRM); ion source: electrospray ionization (ESI); Nebulize gas: 8 L/min; Curtain gas: 8 L/min; Collision gas: 4 L/min; Ionspray voltage: 4500 v; Temperature: 400° C./500° C. Preparation of the Standard Curve and Quality-Control Sample: a Suitable Amount of the drug to be tested was weighted precisely and then formulated into a stock solution (2.6 mg/mL) with ultrapure water. The stock solution was diluted with methanol to obtain a series of working solutions in a concentration of 25000, 5000, 2500, 500, 250 and 50 ng/mL respectively. 100 μL of plasma samples were respectively added into 20 μL of said working solutions to obtain the calibrated solutions in a concentration of […]. By the same method, the quality-controlled sample solutions in a concentration of 4000, 800 and 20 ng/mL can be prepared. A standard curve was obtained by chromatographic analysis of the sample. Methods for handling of sample: 20 μL of acetonitrile and 200 μL (200 ng/mL) Warfarin in acetonitrile were added into 100 μL of plasma sample, then spun for 1 minute and centrifuged for 5 minutes at 15000 rpm. 100 μL of the supernatant was taken, where 3 μL was used for the LC/MS/MS analysis. Results and Discussions: Concentration to be administered: The formulated drugs were determined using HPLC, and compared with the standard to obtain that the accuracy of the concentration of the drug solution administered by intravenous injection was 103.2%. Data analysis: The drug concentration in plasma would be considered as zero if under detectable limit (10 ng/mL). The pharmacokinetics parameters were calculated by the non-compartment model using Winnonlin Professional 5.2 pharmacokinetics software. Pharmacokinetics: The pharmacokinetics parameters and drug-time curve were obtained by measuring the plasma drug concentration at different time points. The half lives (t1/2) of the tested compounds were summarized in Table 3, wherein the half lives of the compounds of the present invention in rats (intravenous injection) were longer than those of Meropenem and Ertapenem.

[8] abbreviates: SD male rats, intravenous injection 10 mg/kg, plasma, X ± SD.

Converted amounts (≈) assume the structure as drawn.

Usually MIC90 stands for an inhibitory concentration at the 90% level, which refers to growth in some studies and to a panel of isolates in others. A high value points to lower susceptibility. For the compound `C[C@@H](O)[C@H]1C(=O)N2C(C(=O)O)=C(S[C@@H]3CN[C@H](C(=O)NCc4ccco4)C3)[C@H](C)[C@H]12` [Compound A, (4R,5S,6S)-3-[(2S,4S)-2-formyl[[furan-2-ylmethyl]amino]pyrrolidine-4-yl]thio-6-[(1R)-1-hydroxyethyl]-4-methyl-7-oxo-1-aza-bicyclo[3.2.0] hept-2-ene-2-carboxylic acid], the MIC90 stood at 0.125 µg/mL (≈ 0.287 µM) with klebsiella pneumonia; 32 µg/mL (≈ 73.5 µM) in [1]; 1 µg/mL (≈ 2.3 µM) in data set [2]; 0.125 µg/mL (≈ 0.287 µM) in data set [3]; 0.125 µg/mL (≈ 0.287 µM) in [4]; 0.5 µg/mL (≈ 1.15 µM) in [5]. Also, the MIC90 in data set [6] is 0.008 µg/mL (≈ 0.0184 µM); against pseudomonas aeruginosa, 64 µg/mL (≈ 147 µM); with proteus mirabilis it was 0.063 µg/mL (≈ 0.145 µM); with serratia marcescens, 0.063 µg/mL (≈ 0.145 µM). In data set [7] (setting [8]), the “Half lives t1/2” value was found to be 21 ± 2.4 min.

Turning to `C[C@@H](O)[C@H]1C(=O)N2C(C(=O)O)=C(S[C@@H]3CN[C@H](C(=O)NCc4ccc(C(=O)O)o4)C3)[C@H](C)[C@H]12` [Compound B, (4R,5S,6S)-3-[(2S,4S)-2-formyl[[furan-2-carboxy-5-ylmethyl]amino]-pyrrolidine-4-yl]thio-6-[(1R)-1-hydroxyethyl]-4-methyl-7-oxo-1-aza-bicyclo[3.2.0]hept-2-ene-2-carboxylic acid], the MIC90 against klebsiella pneumonia was determined as 0.5 µg/mL (≈ 1.04 µM); in data set [1], 64 µg/mL (≈ 133 µM); in data set [2] it was 2 µg/mL (≈ 4.17 µM); in data set [3] it was 0.25 µg/mL (≈ 0.521 µM); in data set [4] it was 0.25 µg/mL (≈ 0.521 µM); in data set [5] it was 1 µg/mL (≈ 2.09 µM). Besides, the MIC90 in data set [6] came to 0.008 µg/mL (≈ 0.0167 µM); in the data set with pseudomonas aeruginosa it was 32 µg/mL (≈ 66.7 µM); in the data set on proteus mirabilis, 0.063 µg/mL (≈ 0.131 µM); against serratia marcescens, 0.063 µg/mL (≈ 0.131 µM). Moreover, in data set [7] (setting [8]), the “Half lives t1/2” value amounted to 43.2 ± 1.8 min.

With `C[C@@H](O)[C@H]1C(=O)N2C(C(=O)O)=C(S[C@@H]3CN[C@H](C(=O)NCc4ccc(CC(=O)O)o4)C3)[C@H](C)[C@H]12` [Compound C, (4R,5S,6S)-3-[(2S,4S)-2-formyl[[furan-2-carboxymethyl-5-ylmethyl]amino]pyrrolidine-4-yl]thio-6-[(1R)-1-hydroxyethyl]-4-methyl-7-oxo-1-aza-bicyclo[3.2.0]hept-2-ene-2-carboxylic acid], the MIC90 against klebsiella pneumonia is 0.5 µg/mL (≈ 1.01 µM); in data set [1] it was 64 µg/mL (≈ 130 µM); in data set [2] it was 1 µg/mL (≈ 2.03 µM); in data set [3], 0.25 µg/mL (≈ 0.507 µM); in [4] it was 0.25 µg/mL (≈ 0.507 µM); in [5] it was 0.5 µg/mL (≈ 1.01 µM). The MIC90 in data set [6] is 0.016 µg/mL (≈ 0.0324 µM); against pseudomonas aeruginosa, 32 µg/mL (≈ 64.8 µM); with proteus mirabilis it was 0.063 µg/mL (≈ 0.128 µM); with serratia marcescens, 0.063 µg/mL (≈ 0.128 µM). Moreover, in [7] (setting [8]), the “Half lives t1/2” value was 46.8 ± 1.8 min.

With `C[C@@H](O)[C@H]1C(=O)N2C(C(=O)O)=C(S[C@@H]3CN[C@H](C(=O)NCc4cc(C(=O)O)co4)C3)[C@H](C)[C@H]12` [Compound D, (4R,5S,6S)-3-[(2S,4S)-2-formyl[[furan-3-carboxy-5-ylmethyl]amino]-pyrrolidine-4-yl]-thio-6-[(1R)-1-hydroxyethyl]-4-methyl-7-oxo-1-aza-bicyclo[3.2.0]hept-2-ene-2-carboxylic acid], the MIC90 against klebsiella pneumonia was 0.125 µg/mL (≈ 0.261 µM); in [1] it was 32 µg/mL (≈ 66.7 µM); in data set [2] it was 2 µg/mL (≈ 4.17 µM); in [3], 0.25 µg/mL (≈ 0.521 µM); in data set [4] it was 0.125 µg/mL (≈ 0.261 µM); in data set [5] it was 1 µg/mL (≈ 2.09 µM). Also, the MIC90 in [6] is 0.008 µg/mL (≈ 0.0167 µM); against pseudomonas aeruginosa it was 64 µg/mL (≈ 133 µM); against proteus mirabilis it was 0.063 µg/mL (≈ 0.131 µM); in the data set on serratia marcescens it was 0.063 µg/mL (≈ 0.131 µM). In addition, the “Half lives t1/2” value in [7] (setting [8]) stood at 19.8 ± 1.2 min.

As for `C[C@@H](O)[C@H]1C(=O)N2C(C(=O)O)=C(S[C@@H]3CN[C@H](C(=O)NCc4ccc(S(N)(=O)=O)o4)C3)[C@H](C)[C@H]12` [Compound E, (4R,5S,6S)-3-[(2S,4S)-2-formyl[[furan-2-sulphonylamino-5-ylmethyl]amino]-pyrrolidine-4-yl]thio-6-[(1R)-1-hydroxyethyl]-4-methyl-7-oxo-1-aza-bicyclo[3.2.0]hept-2-ene-2-carboxylic acid], the MIC90 against klebsiella pneumonia was 0.5 µg/mL (≈ 0.972 µM); in data set [1] it was 64 µg/mL (≈ 124 µM); in [2] it was 2 µg/mL (≈ 3.89 µM); in data set [3], 0.25 µg/mL (≈ 0.486 µM); in data set [4], 0.125 µg/mL (≈ 0.243 µM); in data set [5], 2 µg/mL (≈ 3.89 µM). Also, the MIC90 in data set [6] came out at 0.008 µg/mL (≈ 0.0155 µM); in the data set with pseudomonas aeruginosa it was 32 µg/mL (≈ 62.2 µM); in the data set on proteus mirabilis, 0.063 µg/mL (≈ 0.122 µM); with serratia marcescens it was 0.063 µg/mL (≈ 0.122 µM). In addition, the “Half lives t1/2” value in [7] (setting [8]) came to 41.4 ± 2.4 min.

Take `C[C@@H](O)[C@H]1C(=O)N2C(C(=O)O)=C(S[C@@H]3CN[C@H](C(=O)Nc4cccc(C(=O)O)c4)C3)[C@H](C)[C@H]12` [Ertapenem, reference compound]: the MIC90 is 1 µg/mL (≈ 2.1 µM) with klebsiella pneumonia; more than 64 µg/mL in [1]; 2 µg/mL (≈ 4.21 µM) in data set [2]; 0.5 µg/mL (≈ 1.05 µM) in [3]; 0.25 µg/mL (≈ 0.526 µM) in data set [4]; 2 µg/mL (≈ 4.21 µM) in data set [5]. Also, the MIC90 is 0.016 µg/mL (≈ 0.0336 µM) in [6], more than 64 µg/mL against pseudomonas aeruginosa, 0.063 µg/mL (≈ 0.132 µM) in the data set with proteus mirabilis and 0.125 µg/mL (≈ 0.263 µM) in the data set with serratia marcescens. Moreover, the “Half lives t1/2” value in [7] (rat, in vivo, iv, 10 mg/kg) came to 36 ± 1.8 min.

In the case of `C[C@@H](O)[C@H]1C(=O)N2C(C(=O)O)=C(S[C@@H]3CN[C@H](C(=O)N(C)C)C3)[C@H](C)[C@H]12` [Meropenem, reference compound], the MIC90 against klebsiella pneumonia stood at 0.5 µg/mL (≈ 1.3 µM); in data set [1], 64 µg/mL (≈ 167 µM); in [2], 2 µg/mL (≈ 5.22 µM); in data set [3], 0.25 µg/mL (≈ 0.652 µM); in data set [4], 0.125 µg/mL (≈ 0.326 µM); in [5], 1 µg/mL (≈ 2.61 µM). Further, the MIC90 in data set [6] was found to be 0.008 µg/mL (≈ 0.0209 µM); against pseudomonas aeruginosa it was 32 µg/mL (≈ 83.4 µM); against proteus mirabilis, 0.063 µg/mL (≈ 0.164 µM); with serratia marcescens it was 0.063 µg/mL (≈ 0.164 µM). Moreover, in [7] (setting [8]), the “Half lives t1/2” value came out at 6.6 ± 1.2 min.
